Data as given in PubChem BioAssay (NCI).
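Where inhibition never reached the appropriate level, the endpoint shown equals the highest concentration tested. Otherwise, values were interpolated linearly from a five-concentration, 48-hour dose response in 96-well plates. GI50 = concentration required for 50% inhibition of growth. At the TGI there is no net growth.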

Assays:
Test in all cases: inhibition of tumour cell growth, NCI panel, 48 h
SK-MEL-28 melanoma = system: SK-MEL-28 melanoma
SR leukemia = system: SR leukemia
HCT-116 colon = system: HCT-116 colon
SF-295 CNS = system: SF-295 CNS
NCI-H460 lung = system: NCI-H460 lung
RPMI-8226 leukemia = system: RPMI-8226 leukemia
MALME-3M melanoma = system: MALME-3M melanoma
PC-3 prostate = system: PC-3 prostate
MCF7 breast = system: MCF7 breast
BT-549 breast = system: BT-549 breast

| SMILES | TGI (SK-MEL-28 melanoma) [µM] | TGI (SR leukemia) [µM] | TGI (HCT-116 colon) [µM] | TGI (SF-295 CNS) [µM] | TGI (NCI-H460 lung) [µM] | TGI (RPMI-8226 leukemia) [µM] | TGI (MALME-3M melanoma) [µM] | TGI (PC-3 prostate) [µM] | TGI (MCF7 breast) [µM] | TGI (BT-549 breast) [µM] | GI50 (PC-3 prostate) [µM] | GI50 (SK-MEL-28 melanoma) [µM] | GI50 (HCT-116 colon) [µM] | GI50 (MCF7 breast) [µM] | GI50 (SF-295 CNS) [µM] | GI50 (NCI-H460 lung) [µM] | GI50 (RPMI-8226 leukemia) [µM] | GI50 (MALME-3M melanoma) [µM] |
| --- | --- | --- | --- | --- | --- | --- | --- | --- | --- | --- | --- | --- | --- | --- | --- | --- | --- | --- |
| c1ccc2c(CNCCCCCCCCCCCCNCc3cccc4ccccc34)cccc2c1 | 3.38 | 2.69 | 2.95 | 58.2 | 2.95 | 2.55 | 3.66 |  |  |  |  |  |  |  |  |  |  |  |
| Cc1ccccc1NC(=O)c1ccc([N+](=O)[O-])cc1 | > 100 |  | > 100 | > 100 | > 100 | > 100 | > 100 |  |  |  |  |  |  |  |  |  |  |  |
| CCOC(=O)C(C(=O)OCC)=c1sc(=C(C(=O)OCC)C(=O)OCC)s1 | > 100 |  |  | > 100 | > 100 | > 100 | > 100 |  |  |  |  |  |  |  |  |  |  |  |
| Cc1c(CC/C(=N\Nc2ccc([N+](=O)[O-])cc2[N+](=O)[O-])c2ccccc2)c2ccccc2n1C | > 100 |  | > 100 | > 100 | > 100 | > 100 | > 100 |  |  |  |  |  |  |  |  |  |  |  |
| COc1ccc(C(c2cc3c(cc2O)OCO3)N2CCOCC2)cc1OC (stereo not drawn) | 32.9 |  | 22.9 | 27.2 | 71.9 |  | 25.7 | 25.7 | > 100 | 43.8 |  |  |  |  |  |  |  |  |
| CC(C)C1COC(c2ccc3ccccc3c2-c2c(O[Si](C)(C)C(C)(C)C)ccc3ccccc23)=N1 (stereo not drawn) | 33.8 |  |  | 32.1 | 37.4 | 33.2 | 32.9 |  |  |  |  |  |  |  |  |  |  |  |
| FC(F)(F)c1nc(-c2ccccc2)oc1Sc1oc(-c2ccccc2)nc1C(F)(F)F |  | > 100 | > 100 | > 100 | > 100 | > 100 | > 100 |  |  |  |  |  |  |  |  |  |  |  |
| CC(C)c1ccc2nc3ccc(C(=O)NCCN4CCN(c5ccccc5)CC4)cn3c(=O)c2c1 | > 100 |  | > 100 | 4.91 | > 100 |  |  |  | > 100 | > 100 |  |  |  |  |  |  |  |  |
| CC(C)(C)C(=O)/C=C/c1cccc(Oc2ccccc2)c1 | 34.1 | > 100 | 31 | 25.8 | 32.5 | 22.5 | 36.2 |  |  |  |  |  |  |  |  |  |  |  |
| CC(CN)[C@@H]1CC[C@]2(CO)CC[C@]3(C)[C@H](CC[C@@H]4[C@@]5(C)CCC(N)C(C)(C)[C@@H]5CC[C@]43C)[C@@H]12 (stereo partly drawn) | 3.62 |  | 3.59 | 3.41 | 3.49 | 4.58 | 3.29 | 3.31 | 3.52 |  | 1.74 | 1.91 | 1.68 | 1.57 | 1.74 | 1.84 | 2.06 | 1.54 |
| COC(=O)[C@@]12C=CC(=O)[C@H]3C[C@@H](C(C(C)C)C1)[C@]32OC (stereo partly drawn) | > 100 |  | > 100 | > 100 | > 100 | > 100 | > 100 |  |  |  |  |  |  |  |  |  |  |  |
| COc1ccc(C2C3=C(COC3=O)Oc3cc4c(cc32)OCO4)cc1 (stereo not drawn) | > 100 |  | > 100 | 69.6 | > 100 | > 100 | > 100 |  |  |  |  |  |  |  |  |  |  |  |
| O=C(C=Nc1ccccc1C(=O)[O-])c1cccs1.O=C(C=Nc1ccccc1C(=O)[O-])c1cccs1.[Zn+2] | > 100 | > 100 | > 100 | 42.1 | > 100 |  | > 10 |  |  |  |  |  |  |  |  |  |  |  |
| FC(F)(F)c1cccc(C2SCc3nc4ccccc4n32)c1 (stereo not drawn) | > 100 | > 100 | > 100 | > 100 |  | > 100 | > 100 |  |  |  |  |  |  |  |  |  |  |  |
| COC1CC(OC)C(O)C(CO)O1 (stereo not drawn) | > 100 | > 100 | > 100 | > 100 | > 100 |  | > 100 |  |  |  |  |  |  |  |  |  |  |  |
| CCCCCCCCCCCCCCCCCC[N+](C)(C)Cc1ccc(C[N+](C)(C)CCCCCCCCCCCCCCCCCC)cc1 | 35 | 5.63 | 32.5 | 24.2 | > 100 | 48.7 | > 100 |  |  |  |  |  |  |  |  |  |  |  |
| Cc1ccc(NC(=O)CC2C(=O)Nc3ccccc3S2=O)c(C)c1 (stereo not drawn) | > 100 | 7.54 | 38.3 | 29.7 | > 64.3 | 44.8 | > 68.2 |  |  |  |  |  |  |  |  |  |  |  |
| Nc1nc(=Nc2ccccc2)ss1 | > 100 | > 100 | > 100 | > 100 | > 100 | > 100 | > 100 |  |  |  |  |  |  |  |  |  |  |  |
| CC1=Nc2ccccc2C12C(c1ccccc1)C(c1ccccc1)C(=O)N1c3ccccc3CC12 (stereo not drawn) | > 100 | > 100 | > 100 | > 100 | > 100 | > 100 | > 100 |  |  |  |  |  |  |  |  |  |  |  |
| COC(=O)C1=C(C)N(NC(N)=O)C(C)(O)C12CCOC2=O (stereo not drawn) | > 100 |  | > 100 | > 100 | > 100 | > 100 | > 100 |  |  |  |  |  |  |  |  |  |  |  |
| CCCN1C(=O)CNC(=O)c2[nH]cnc21 | > 100 | > 100 | > 100 | > 100 | > 100 | > 100 | > 100 |  |  |  |  |  |  |  |  |  |  |  |
